Like-named read-outs stand apart in the source and are kept apart here.

Consider 20 compounds from patent US10144742B2 (Millennium Pharmaceuticals, Inc., priority 2014, dated 2018).

In experiment [1] the target is hNAMPT protein (Homo sapiens (Human), UniProt P43490). Put plainly: NAMPT enzyme assay (TR-FRET/HTRF, BodiPY ligand, anti 6His-Tb). Type of experiment: binding. The settings on record: for IC50: NAMPT IC50 range class, read-out: IC50; for inhibition at 1 µM: read-out: Percent Inhibition. Put shortly:
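Compound or DMSO was incubated for 1 h at room temperature, protected from light, with BodiPY ligand and hNAMPT labelled by terbium anti-6His antibody. The 520 nm to 486 nm emission ratio after 320 nm excitation gave inhibition versus vehicle, from which concentration-response curves yielded IC50.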
A general note: TR-FRET usually uses a lanthanide donor and a delayed reading to cut background.

Experiment [2] relates to PC3 cells. Put plainly: PC3 growth inhibition (Cell-titer glo, 72 hours). The settings on record: Homo sapiens, PC-3, PC3 cells, 72 hours, Cell-titer glo, read-out: Percent Inhibition (PC3 growth inhibition); for inhibition at 1.667 µM: compound concentration 1.667 μM; for inhibition at 1 µM: compound concentration 1 μM. Type of experiment: cell-based. Put shortly: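 Compounds in AIM serum-free medium were applied for 72 h at 37 °C, 5% CO2 to PC3 cells plated overnight from RPMI1640 culture. Luminescence after 10 min CellTiter-Glo, normalised to DMSO, gave % viability at 1 μM or 1.667 μM, or GI50/LD50.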

hNAMPT protein, sequence (P43490 whole entry): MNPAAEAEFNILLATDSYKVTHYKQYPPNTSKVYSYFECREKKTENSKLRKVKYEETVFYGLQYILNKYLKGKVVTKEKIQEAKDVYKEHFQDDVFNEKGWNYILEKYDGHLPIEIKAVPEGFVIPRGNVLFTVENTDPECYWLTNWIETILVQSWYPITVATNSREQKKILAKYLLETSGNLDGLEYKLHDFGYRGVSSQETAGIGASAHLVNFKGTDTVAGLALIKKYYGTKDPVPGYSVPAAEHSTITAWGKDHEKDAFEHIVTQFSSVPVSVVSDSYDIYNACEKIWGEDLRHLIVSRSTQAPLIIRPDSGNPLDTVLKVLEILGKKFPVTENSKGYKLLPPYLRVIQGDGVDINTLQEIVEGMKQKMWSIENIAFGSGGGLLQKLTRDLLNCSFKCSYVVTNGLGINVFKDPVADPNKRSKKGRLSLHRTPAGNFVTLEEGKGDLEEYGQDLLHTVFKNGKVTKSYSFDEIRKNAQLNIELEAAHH

One may read the IC50 as the point on the concentration scale where inhibition reaches its midpoint. The inhibition is the change of the read-out against control, counted positive when it falls. With `O=C(NCc1ccc2nccn2c1)c1ccc2nc(N3CCCCC3)c(-c3ccc(F)cc3)nc2c1` [Compound I-170], the IC50 in experiment [1] was less than 0.1 µM. For the same compound, the inhibition at 1 µM in experiment [1] (compound concentration 1 μM) was 98%. For the same compound, the inhibition at 1.667 µM in experiment [2] amounted to 2%.
Regarding `CCOC(=O)CCc1ccc(-c2nc3cc(C(=O)NCCCn4ccnc4)ccc3nc2-c2ccccc2)cc1` [Compound I-171, ethyl 3-[4-(7-{[3-(1H-imidazol-1-yl)propyl]carbamoyl}-3-phenylquinoxalin-2-yl)phenyl]propanoate], in experiment [1], the IC50 was in the range of 2 to 10 µM. The inhibition at 1 µM in experiment [1] (compound concentration 1 μM) worked out at 27%; in experiment [2], 95%.
As to `COC1CN(c2nc3ccc(C(=O)NCCCc4ncc[nH]4)cc3nc2-c2ccc(F)cc2)C1` [Compound I-172, 3-(4-fluorophenyl)-N-[3-(1H-imidazol-2-yl)propyl]-2-(3-methoxyazetidin-1-yl)quinoxaline-6-carboxamide], the IC50 in experiment [1] is less than 0.1 µM. Moreover, in experiment [1] (compound concentration 1 μM), the inhibition at 1 µM is more than 99%. Further, the inhibition at 1.667 µM in experiment [2] stood at 2%.
`O=C(NCCn1ccnc1)c1ccc2nc(N3CCC(C4CCNCC4)CC3)c(-c3ccccc3)nc2c1` [Compound I-173, 2-(4,4′-bipiperidin-1-yl)-N-[2-(1H-imidazol-1-yl)ethyl]-3-phenylquinoxaline-6-carboxamide]: in experiment [1], the IC50 lay within 0.1 to 0.5 µM. The inhibition at 1 µM in experiment [1] (compound concentration 1 μM) was 83%; in experiment [2], -1%.
Take `O=C(NCCCn1ccnc1)c1ccc2nc(-c3ccccc3)c(-c3ccsc3)nc2c1` [Compound I-174, N-[3-(1H-imidazol-1-yl)propyl]-2-phenyl-3-(3-thienyl)quinoxaline-6-carboxamide]: the IC50 in experiment [1] lay in the range of 0.1 to 0.5 µM. Besides, the inhibition at 1 µM in experiment [1] (compound concentration 1 μM) worked out at 89%; in experiment [2], 1%.
Consider `O=C(NCCCn1ccnc1)c1ccc2nc(-c3ccccc3)c(N3CCC3)nc2c1` [Compound I-175, 3-(azetidin-1-yl)-N-[3-(1H-imidazol-1-yl)propyl]-2-phenylquinoxaline-6-carboxamide], for which, in experiment [1], the concentration for half-maximal inhibition (IC50) fell in the range of 2 to 10 µM. Also, the inhibition at 1 µM in experiment [1] (compound concentration 1 μM) was 20%; in experiment [2], 95%.
In the same order, the values of `O=C(NCCCn1ccnc1)c1ccc2nc(-c3ccccc3)c(-c3cccnc3)nc2c1` [Compound I-176, N-[3-(1H-imidazol-1-yl)propyl]-2-phenyl-3-(pyridin-3-yl)quinoxaline-6-carboxamide] are 1 to 2 µM, 46% and 1%.
With `Cn1cncc1CCNC(=O)c1ccc2nc(N3CCOCC3)c(-c3ccc(F)cc3)nc2c1` [Compound I-177, 3-(4-fluorophenyl)-N-[2-(1-methyl-1H-imidazol-5-yl)ethyl]-2-(morpholin-4-yl)quinoxaline-6-carboxamide], the IC50 in experiment [1] was in the range of 0.1 to 0.5 µM. Also, in experiment [1] (compound concentration 1 μM), the inhibition at 1 µM amounted to 77%. In addition, in experiment [2], the inhibition at 1.667 µM worked out at 2%.
For `O=C(NCCCc1ncc[nH]1)c1ccc2nc(-c3ccc(F)cc3)c(-c3ccc(F)cc3)nc2c1` [Compound I-178, 2,3-bis(4-fluorophenyl)-N-[3-(1H-imidazol-2-yl)propyl]quinoxaline-6-carboxamide], in that order: less than 0.1 µM, 97% and 2%.
On to `Cn1cccc1-c1nc2ccc(C(=O)NCCCn3ccnc3)cc2nc1-c1ccccc1` [Compound I-179, N-[3-(1H-imidazol-1-yl)propyl]-2-(1-methyl-1H-pyrrol-2-yl)-3-phenylquinoxaline-6-carboxamide], for which, in experiment [1], the IC50 is 0.5 to 1 µM. Further, the inhibition at 1 µM in experiment [1] (compound concentration 1 μM) was 57%; in experiment [2], -7%.
With `O=C(NCCCc1ccccn1)c1ccc2nc(-c3ccc(F)cc3)c(-c3ccc(F)cc3)nc2c1` [Compound I-180, 2,3-Bis(4-fluorophenyl)-N-[3-(pyridin-2-yl)propyl]quinoxaline-6-carboxamide], in experiment [1], the IC50 was in the range of 2 to 10 µM and the inhibition at 1 µM was found to be 27%. For the same compound, in experiment [2], the inhibition at 1 µM came to 102%.
For `COc1cccc(-c2nc3ccc(C(=O)NCCc4cccnc4)cc3nc2-c2cccc(OC)c2)c1` [Compound I-181, 2,3-bis(3-methoxyphenyl)-N-[2-(pyridin-3-yl)ethyl]quinoxaline-6-carboxamide], the IC50 in experiment [1] was less than 0.1 µM. Moreover, the results for the inhibition at 1 µM in experiment [1] (compound concentration 1 μM) and in experiment [2] were 100% and 0%, respectively.
`CS(=O)(=O)c1cccc(-c2nc3ccc(C(=O)NCCCn4ccnc4)cc3nc2-c2ccccc2)c1` [Compound I-182, N-[3-(1H-imidazol-1-yl)propyl]-2-[3-(methylsulfonyl)phenyl]-3-phenylquinoxaline-6-carboxamide]: the IC50 in experiment [1] was in the range of 0.1 to 0.5 µM. Besides, the figures for the inhibition at 1 µM in experiment [1] (compound concentration 1 μM) and in experiment [2] were 83% and -7%, respectively.
In the case of `COc1cccc(-c2nc3cc(C(=O)NCCCc4ncc[nH]4)ccc3nc2N2CCCCC2)c1` [Compound I-183, N-[3-(1H-imidazol-2-yl)propyl]-3-(3-methoxyphenyl)-2-(piperidin-1-yl)quinoxaline-6-carboxamide], in experiment [1], the IC50 is less than 0.1 µM. In addition, the inhibition at 1 µM in experiment [1] (compound concentration 1 μM) was more than 99%. Further, in experiment [2], the inhibition at 1.667 µM turned out to be 2%.
As for `O=C(NCCc1cnccn1)c1ccc2nc(-c3ccc(F)cc3)c(-c3ccc(F)cc3)nc2c1` [Compound I-184, 2,3-bis(4-fluorophenyl)-N-[2-(pyrazin-2-yl)ethyl]quinoxaline-6-carboxamide], in experiment [1], the IC50 is 1 to 2 µM. The inhibition at 1 µM in experiment [1] (compound concentration 1 μM) was 39%; in experiment [2] it was 101%.
In the same order, the values of `COc1cccc(-c2nc3ccc(C(=O)NCCCn4ccnc4)cc3nc2-c2ccccc2)c1` [Compound I-187, N-[3-(1H-imidazol-1-yl)propyl]-2-(3-methoxyphenyl)-3-phenylquinoxaline-6-carboxamide] are 0.1 to 0.5 µM, 84% and -8%.
With `CC(C)(C)OC(=O)N1CCC(C2CCN(c3nc4ccc(C(=O)NCCCn5ccnc5)cc4nc3-c3ccccc3)CC2)CC1` [Compound I-188, tert-butyl 1′-(6-{[3-(1H-imidazol-1-yl)propyl]carbamoyl}-3-phenylquinoxalin-2-yl)-4,4′-bipiperidine-1-carboxylate], the IC50 in experiment [1] is 0.1 to 0.5 µM. Besides, the figures for the inhibition at 1 µM in experiment [1] (compound concentration 1 μM) and in experiment [2] were 83% and -7%, respectively.
For the compound `COc1cccc(-c2nc3cc(C(=O)NCCc4cccnc4)ccc3nc2N2CCOCC2)c1` [Compound I-189, 3-(3-methoxyphenyl)-2-(morpholin-4-yl)-N-[2-(pyridin-3-yl)ethyl]quinoxaline-6-carboxamide], in experiment [1], the IC50 is less than 0.1 µM. The inhibition at 1 µM in experiment [1] (compound concentration 1 μM) was determined as 91%. The inhibition at 1.667 µM in experiment [2] was found to be 2%.
`NC(=O)c1ccc(-c2nc3ccc(C(=O)NCCCn4ccnc4)cc3nc2-c2ccccc2)cc1` [Compound I-190, 2-(4-carbamoylphenyl)-N-[3-(1H-imidazol-1-yl)propyl]-3-phenylquinoxaline-6-carboxamide]: the IC50 in experiment [1] was in the range of 0.1 to 0.5 µM. Also, the inhibition at 1 µM in experiment [1] (compound concentration 1 μM) was 74%; in experiment [2] it was -6%.
For `O=C(NCCCn1ccnc1)c1ccc2nc(-c3ccccc3)c(NCc3ccccc3)nc2c1` [Compound I-191, 3-(benzylamino)-N-[3-(1H-imidazol-1-yl)propyl]-2-phenylquinoxaline-6-carboxamide], the 50% inhibitory concentration (IC50) in experiment [1] is 2 to 10 µM. The inhibition at 1 µM in experiment [1] (compound concentration 1 μM) stood at 16%; in experiment [2] it was 24%.
